Reference: the NIST ThermoML archive (doi:10.1016/j.jct.2015.06.024)

Test: mn = molality of the nth substance listed, in mol/kg
Settings: 84.5 kPa, Liquid; for speed of sound: Frequency=3 MHz, Sing-around technique in a fixed-path interferometer; for mass density: Vibrating tube method

O=C(O)[C@@H]1CCCN1 [L-proline] + O
Settings | mass density, 288.15 K [kg/m3] | mass density, 293.15 K [kg/m3] | mass density, 298.15 K [kg/m3] | mass density, 303.15 K [kg/m3] | mass density, 308.15 K [kg/m3] | speed of sound, 288.15 K [m/s] | speed of sound, 293.15 K [m/s] | speed of sound, 298.15 K [m/s] | speed of sound, 303.15 K [m/s] | speed of sound, 308.15 K [m/s]
m1 = 0.04355 | 1000.55 | 999.631 | 998.453 | 997.041 | 995.413 | 1470.3 | 1486.1 | 1500.1 | 1512.3 | 1522.8
m1 = 0.05237 | 1000.84 | 999.916 | 998.737 | 997.322 | 995.693 | 1471 | 1486.8 | 1500.8 | 1512.9 | 1523.4
m1 = 0.06122 | 1001.13 | 1000.21 | 999.025 | 997.607 | 995.975 | 1471.7 | 1487.6 | 1501.5 | 1513.6 | 1524
m1 = 0.06959 | 1001.41 | 1000.48 | 999.295 | 997.877 | 996.241 | 1472.5 | 1488.2 | 1502.1 | 1514.2 | 1524.6
m1 = 0.07882 | 1001.71 | 1000.78 | 999.588 | 998.167 | 996.529 | 1473.2 | 1488.9 | 1502.8 | 1514.8 | 1525.2
m1 = 0.08768 | 1002 | 1001.07 | 999.877 | 998.452 | 996.813 | 1474 | 1489.6 | 1503.5 | 1515.4 | 1525.8
m1 = 0.09661 | 1002.3 | 1001.36 | 1000.16 | 998.734 | 997.093 | 1474.7 | 1490.3 | 1504.1 | 1516.1 | 1526.4
m1 = 0.1056 | 1002.59 | 1001.65 | 1000.45 | 999.02 | 997.377 | 1475.4 | 1491 | 1504.7 | 1516.7 | 1526.9
m1 = 0.1234 | 1003.17 | 1002.23 | 1001.02 | 999.585 | 997.937 | 1476.8 | 1492.3 | 1506 | 1517.9 | 1528.1
m1 = 0.1414 | 1003.76 | 1002.8 | 1001.59 | 1000.15 | 998.498 | 1478.3 | 1493.7 | 1507.3 | 1519.1 | 1529.3
m1 = 0.1591 | 1004.34 | 1003.37 | 1002.15 | 1000.71 | 999.051 | 1479.8 | 1495.2 | 1508.7 | 1520.5 | 1530.6
m1 = 0.1775 | 1004.93 | 1003.96 | 1002.74 | 1001.28 | 999.622 | 1481.3 | 1496.6 | 1510.1 | 1521.8 | 1531.8
m1 = 0.1955 | 1005.51 | 1004.53 | 1003.3 | 1001.85 | 1000.18 | 1482.8 | 1498 | 1511.4 | 1523 | 1533
m1 = 0.2134 | 1006.09 | 1005.1 | 1003.87 | 1002.4 | 1000.73 | 1484.2 | 1499.4 | 1512.6 | 1524.2 | 1534.1

CCCCO [butan-1-ol] + O
Settings | mass density, 288.15 K [kg/m3] | mass density, 293.15 K [kg/m3] | mass density, 298.15 K [kg/m3] | mass density, 303.15 K [kg/m3] | mass density, 308.15 K [kg/m3] | speed of sound, 288.15 K [m/s] | speed of sound, 293.15 K [m/s] | speed of sound, 298.15 K [m/s] | speed of sound, 303.15 K [m/s] | speed of sound, 308.15 K [m/s]
m1 = 0.01342 | 998.939 | 998.039 | 996.876 | 995.476 | 993.859 | 1467.6 | 1483.6 | 1497.7 | 1510 | 1520.6
m1 = 0.02701 | 998.774 | 997.873 | 996.708 | 995.306 | 993.686 | 1468.7 | 1484.7 | 1498.7 | 1510.9 | 1521.3
m1 = 0.04053 | 998.614 | 997.712 | 996.547 | 995.143 | 993.508 | 1469.9 | 1485.7 | 1499.6 | 1511.7 | 1522.2
m1 = 0.05431 | 998.455 | 997.552 | 996.384 | 994.976 | 993.352 | 1471 | 1486.7 | 1500.5 | 1512.5 | 1522.9
m1 = 0.06771 | 998.296 | 997.389 | 996.218 | 994.809 | 993.182 | 1472.1 | 1487.7 | 1501.4 | 1513.3 | 1523.6
m1 = 0.08132 | 998.137 | 997.231 | 996.058 | 994.647 | 992.992 | 1473.1 | 1488.6 | 1502.3 | 1514.1 | 1524.4
m1 = 0.1063 | 997.846 | 996.934 | 995.757 | 994.341 | 992.707 | 1475.1 | 1490.5 | 1504 | 1515.7 | 1525.7
m1 = 0.1358 | 997.518 | 996.602 | 995.417 | 993.998 | 992.357 | 1477.4 | 1492.5 | 1505.8 | 1517.4 | 1527.2
